Measurements published in publication PMC10766536 (The Journal of Antibiotics, 2023).
Entries after “also recorded” stand apart in the source; their conditions may differ. Values belong to the compound of their own block, whether it stands above or below them.

Key:
S. aureus NRS384 [1] = assay: S. aureus intracellular killing assay in THP-1 macrophages; format: cell-based; conditions: S. aureus NRS384 in THP-1 macrophages, 2 h, top conc. 1e−6 M
Description: (§1) THP-1 monocytic cell line (American Type Culture Collection) was grown in media (RPMI + 10% FBS + 1% Penicillin/Streptomycin), then seeded at a density of 1e5 cells/well in a 96 well plate and differentiated into macrophages for 3 days prior to infection using 200 nM PMA. Overnight culture of S. aureus or S. typhimurium was grown in RPMI or TSB, respectively, washed twice with PBS and resuspended at 1e7 cfu/ml in PBS. THP-1 were washed with warm media (RMPI without FBS) to remove the Penicillin/Streptomycin and then infected with the bacterial suspension at a multiplicity of infection of 10:1 (S. aureus:macrophages) or 5:1 (S. typhimurium:macrophages). Plates were centrifuged at 300 × g for 5 min to synchronize adhesion of the bacteria to the macrophages, then incubated at 37 °C for 2 h for S. aureus infection or 1 h for S. typhimurium infection. Free-floating bacteria were removed by washing twice with warm media and the remaining extracellular bacteria were killed by addition of media containing gentamicin (50 ug/ml). After 1 h, media was aspirated and the indicated compound was added to the S. aureus-infected macrophages in a dilution series starting at 1e−6 M, with 1:5 dilutions for 6 points (1.0 × 10^−6 M, 2.0 × 10^−7 M, 4.0 × 10^−8 M, 8.0 × 10^−9 M, 1.6 × 10^−9 M, and 3.2 × 10^−10 M) or to the to the S. typhimurium-infected macrophages in a dilution series starting at 1e−4 M, with 1:3 dilutions followed by 1:10 dilutions for 6 points (1.0 × 10^−4 M, 3.0 × 10^−5 M, 1.0 × 10^−5 M, 1.0 × 10^−6 M, 1.0 × 10^−7 M, and 1.0 × 10^−8 M). The compounds were added in media containing 50 µg/ml gentamicin to prevent extracellular growth of bacteria. After 2 h, plates were washed twice with warm RPMI without FBS, and 100 μl of THP-1 lysis buffer (0.1% Triton in PBS) was added to each well. Bacterial survival was enumerated by colony forming units (cfu) through serial dilution and plating onto tryptic soy agar (TSA, Teknova) plates.

S. aureus NRS384 [2] = assay: S. aureus broth killing (growth inhibition) assay; conditions: S. aureus NRS384, TSB, 24 h, OD600
Description: (§3) To test the potency of rifamycin analogs of the disclosure in vitro, a broth growth inhibition assay was developed.

[3] = human
in vitro [4] = conditions: CD-1, mouse
in vitro [5] = conditions: SD, rat
in vitro [6] = conditions: human, Caco-2
endogenous transporters = assay: in vitro; conditions: human, Caco-2
P-gp (MDR1) = P-gp (MDR1) (Homo sapiens, UniProt P08183); assay: in vitro; conditions: dog, MDCK-MDR1
P-gp (MDR1), sequence (P08183 whole entry): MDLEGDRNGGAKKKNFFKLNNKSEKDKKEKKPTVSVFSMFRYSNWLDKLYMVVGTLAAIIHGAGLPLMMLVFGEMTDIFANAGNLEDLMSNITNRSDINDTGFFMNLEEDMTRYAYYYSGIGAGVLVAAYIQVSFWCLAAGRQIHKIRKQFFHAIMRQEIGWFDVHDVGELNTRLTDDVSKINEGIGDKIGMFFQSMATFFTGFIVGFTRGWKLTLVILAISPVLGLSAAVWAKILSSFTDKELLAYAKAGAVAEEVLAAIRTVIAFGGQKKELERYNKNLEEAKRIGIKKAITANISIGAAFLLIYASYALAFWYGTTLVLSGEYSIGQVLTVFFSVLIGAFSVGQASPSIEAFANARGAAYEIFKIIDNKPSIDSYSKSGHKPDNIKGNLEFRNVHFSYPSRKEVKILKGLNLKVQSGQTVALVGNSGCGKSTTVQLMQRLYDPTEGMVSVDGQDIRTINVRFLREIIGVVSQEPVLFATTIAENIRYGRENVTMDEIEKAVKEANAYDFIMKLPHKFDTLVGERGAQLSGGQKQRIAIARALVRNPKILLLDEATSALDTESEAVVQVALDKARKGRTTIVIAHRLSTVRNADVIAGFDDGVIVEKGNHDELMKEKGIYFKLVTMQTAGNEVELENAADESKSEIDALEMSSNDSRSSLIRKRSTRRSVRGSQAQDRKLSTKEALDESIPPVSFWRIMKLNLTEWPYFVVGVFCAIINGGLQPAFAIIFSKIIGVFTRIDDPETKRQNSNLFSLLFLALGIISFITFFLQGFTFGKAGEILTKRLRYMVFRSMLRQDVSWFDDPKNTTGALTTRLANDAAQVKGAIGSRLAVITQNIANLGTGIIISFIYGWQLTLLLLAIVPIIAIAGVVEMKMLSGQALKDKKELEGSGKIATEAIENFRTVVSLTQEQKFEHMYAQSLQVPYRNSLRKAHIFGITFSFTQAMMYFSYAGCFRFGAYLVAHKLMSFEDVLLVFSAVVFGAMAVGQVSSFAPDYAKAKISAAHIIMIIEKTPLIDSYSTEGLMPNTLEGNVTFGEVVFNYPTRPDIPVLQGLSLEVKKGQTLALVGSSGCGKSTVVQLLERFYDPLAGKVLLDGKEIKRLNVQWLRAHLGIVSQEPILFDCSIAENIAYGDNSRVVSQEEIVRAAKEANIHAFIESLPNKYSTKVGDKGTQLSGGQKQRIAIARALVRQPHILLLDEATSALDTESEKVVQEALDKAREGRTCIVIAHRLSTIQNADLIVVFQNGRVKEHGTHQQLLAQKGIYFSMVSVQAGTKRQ

CYP1A2 = assay: in vitro; conditions: human
CYP2B6 = assay: in vitro; conditions: human
CYP3A4 = assay: in vitro; conditions: human
[7] = system: Caco-2: endogenous transporters; assay: Caco-2 permeability
[8] = Human plasma protein binding
[9] = target: MDCK-MDR1: overexpression of Pgp (Homo sapiens, UniProt P08183); assay: MDCK-MDR1 permeability and efflux
MDCK-MDR1: overexpression of Pgp, sequence (P08183 whole entry): as above

[10] = Compound stability in CYP induction assay
hERG = hERG (Homo sapiens, UniProt Q12809); assay: in vitro
hERG, sequence (Q12809 whole entry): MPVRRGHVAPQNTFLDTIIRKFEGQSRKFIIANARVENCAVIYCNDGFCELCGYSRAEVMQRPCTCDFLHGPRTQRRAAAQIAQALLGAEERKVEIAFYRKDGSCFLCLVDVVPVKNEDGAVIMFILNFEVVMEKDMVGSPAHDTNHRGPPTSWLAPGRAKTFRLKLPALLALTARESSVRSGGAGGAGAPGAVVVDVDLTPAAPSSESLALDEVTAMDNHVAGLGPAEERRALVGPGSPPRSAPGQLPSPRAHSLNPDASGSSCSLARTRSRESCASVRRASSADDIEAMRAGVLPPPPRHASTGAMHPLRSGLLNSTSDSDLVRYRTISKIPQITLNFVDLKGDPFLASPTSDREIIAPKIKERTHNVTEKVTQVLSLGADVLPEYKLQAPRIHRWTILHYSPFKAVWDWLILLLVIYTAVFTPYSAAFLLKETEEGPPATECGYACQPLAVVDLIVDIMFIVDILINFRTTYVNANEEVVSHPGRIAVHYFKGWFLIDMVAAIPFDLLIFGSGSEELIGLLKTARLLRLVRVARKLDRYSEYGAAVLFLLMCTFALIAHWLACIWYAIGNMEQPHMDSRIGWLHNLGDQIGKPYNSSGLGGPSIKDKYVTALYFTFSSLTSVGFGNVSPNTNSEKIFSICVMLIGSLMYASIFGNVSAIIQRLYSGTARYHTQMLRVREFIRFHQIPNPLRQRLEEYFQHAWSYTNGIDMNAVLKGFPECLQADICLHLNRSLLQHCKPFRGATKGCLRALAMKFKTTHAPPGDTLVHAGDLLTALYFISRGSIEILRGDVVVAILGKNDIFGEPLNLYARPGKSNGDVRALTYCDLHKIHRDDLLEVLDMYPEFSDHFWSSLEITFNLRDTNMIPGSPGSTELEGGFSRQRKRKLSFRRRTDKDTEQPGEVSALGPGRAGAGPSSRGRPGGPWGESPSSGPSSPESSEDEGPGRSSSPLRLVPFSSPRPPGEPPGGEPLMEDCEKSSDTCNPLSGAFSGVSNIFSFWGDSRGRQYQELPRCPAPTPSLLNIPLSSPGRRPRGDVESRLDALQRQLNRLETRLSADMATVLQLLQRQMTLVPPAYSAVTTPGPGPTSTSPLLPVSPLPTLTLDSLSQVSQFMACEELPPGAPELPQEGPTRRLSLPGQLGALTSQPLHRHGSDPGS

[11] = system: S. aureus MRSA strain N315; assay: S. aureus IV advanced disseminated infection mouse model, kidney burden; format: in vivo, Balb/c mice
Description: (§2) S. aureus MSRA strain NRS384 or N315 (BEI Resources), where indicated, was grown overnight in TSB and sub-cultured to mid-logarithmic phase. […] From 1 to 3 days post-infection, indicated mice were injected subcutaneously with 110 mg/kg vancomycin twice daily where indicated. […] Mice were monitored for weight loss and body conditioning score throughout the infection. At 4 days post-infection, mice were euthanized, and the S. aureus kidney burden was quantified by tissue homogenization followed by enumeration of cfu through serial dilution in PBS and plating onto TSA plates. Data points represent the kidney burden from individual mice tested. Statistical analysis was conducted with GraphPad Prism 9, Version 9.4.1.

[12] = system: S. aureus MRSA strain NRS384; assay: as above; format: in vivo, Balb/c mice; conditions: for S. aureus kidney burden, efficacy: NRS384
Description: as §2

Sprague Dawley rats = assay: 2-week IV once-a-day toxicity study with 2-week recovery in Sprague Dawley rats
Description: A subset from each dose group was maintained for 14 days after the last dose to evaluate delayed toxicity and/or recovery. All animals were observed twice daily for mortality and signs of pain or distress. Detailed clinical observations, body weight measurements and food consumption were conducted weekly; post dose observations (30 min post dose) were conducted daily or as required. Clinical pathology evaluations (hematology, coagulation parameters, and serum chemistry) were performed using samples collected on the day of scheduled sacrifice (main and recovery). At the end of the 14-day dosing period, and at the end of the 14-day recovery period, necropsies were performed on all animals, selected organs were weighed, and tissues were examined macroscopically and microscopically. Toxicokinetic parameters were evaluated on Day 1 and 14.

[13] = system: Salmonella typhimurium AR-0031; assay: S. typhimurium intracellular killing assay in THP-1 macrophages; format: cell-based; conditions: Salmonella typhimurium AR-0031 in THP-1 macrophages, top conc. 1e−4 M
Description: as §1

[14] = system: Salmonella typhimurium ATCC 14028; assay: as above; format: cell-based; conditions: Salmonella typhimurium ATCC 14028 in THP-1 macrophages, top conc. 1e−4 M
Description: as §1

[15] = system: Salmonella typhimurium AR-0031; assay: S. typhimurium broth killing (growth inhibition) assay; conditions: Salmonella typhimurium AR-0031, TSB, 24 h
Description: as §3

[16] = system: Salmonella typhimurium ATCC 14028; assay: as above; conditions: Salmonella typhimurium ATCC 14028, TSB, 24 h
Description: as §3

[17] = 25 mg/kg in combination with vancomycin

Structure (SMILES): CNCCOc1ccc2nc3c4c5c6c(C)c(O)c4c(=O)c(c-3oc2c1)NC(=O)C(C)=CC=CC(C)C(O)C(C)C(O)C(C)C(OC(C)=O)C(C)C(OC)C=COC(C)(O6)C5=O (centres unmarked) [Compound 3]
Intracellular MIC (S. aureus NRS384 [1]): 1 µM | Broth MIC (S. aureus NRS384 [2]): 0.0457 µM

Structure (SMILES): CO[C@H]1/C=C/O[C@@]2(C)Oc3c(C)c(O)c4c(c3C2=O)C2=NC3(CCN(CC(C)C)CC3)NC2=C(NC(=O)/C(C)=C\C=C\[C@H](C)[C@H](O)[C@@H](C)[C@@H](O)[C@@H](C)[C@H](OC(C)=O)[C@@H]1C)C4=O [Rifabutin]
% Recovery (vs. T0 stability) [3]: 98.2% | CLint scaled (in vitro [4]; s9): 13.1 L/h/kg | half-life (in vitro [4]; s9): 0.417 h | remaining at 2 h (in vitro [4]; s9): 4.6% | CLint scaled (in vitro [5]; s9): 0.141 L/h/kg | half-life (in vitro [5]; s9): 19.9 h | remaining at 2 h (in vitro [5]; s9): 89% | Papp A→B (in vitro [6]): 110 nm/s | Papp B→A (in vitro [6]): 71.5 nm/s | efflux ratio (in vitro [6]): 0.648 | recovery (endogenous transporters): 64.8% | Papp A→B (P-gp (MDR1)): 35.7 nm/s | Papp B→A (P-gp (MDR1)): 168 nm/s | efflux ratio (P-gp (MDR1)): 4.7 | fold induction (CYP1A2): 2 | fold induction (CYP2B6): 2.65 | fold induction (CYP3A4): 2.36 | Mean B-A % Recovery [7]: 59.10% | % Protein Bound [8]: 89.6 ± 0.5% | % Protein Free [8]: 10.4 ± 0.5% | % Matrix Stability (6 h) [8]: 104.9% | Mean A-B % Recovery [9]: 91.30% | Mean B-A % Recovery [9]: 67.90% | Average % Stability [10]: 77.8%

Structure (SMILES): COc1cc(N)c(Cl)cc1C(=O)NC1CCN(CCCOc2ccc(F)cc2)CC1OC (centres unmarked) [Cisapride]
inhibition at 0.09 µM (hERG): 87.6%

Structure (SMILES): COC1C=COC2(C)Oc3c(C)c(O)c4c(=O)c(c5oc6ccc(OCCN(C)C)cc6nc-5c4c3C2=O)NC(=O)C(C)=CC=CC(C)C(O)C(C)C(O)C(C)C(OC(C)=O)C1C (centres unmarked) [Compound 6]
Intracellular MIC (S. aureus NRS384 [1]): 1 µM | Broth MIC (S. aureus NRS384 [2]): 0.0625 µM

Structure (SMILES): CN[C@H](CC(C)C)C(=O)N[C@H]1C(=O)N[C@@H](CC(N)=O)C(=O)N[C@H]2C(=O)N[C@H]3C(=O)N[C@H](C(=O)N[C@H](C(=O)O)c4cc(O)cc(O)c4-c4cc3ccc4O)[C@H](O)c3ccc(c(Cl)c3)Oc3cc2cc(c3O[C@@H]2O[C@H](CO)[C@@H](O)[C@H](O)[C@H]2O[C@H]2C[C@](C)(N)[C@H](O)[C@H](C)O2)Oc2ccc(cc2Cl)[C@H]1O [Vancomycin, reference compound]
reduction in S. aureus kidney burden ([11]; vancomycin alone, 110 mg/kg sc twice daily): ~ 4 log | reduction in S. aureus kidney burden ([12]; vancomycin alone, 110 mg/kg sc twice daily days 1-3, NRS384, day 4): 2–3 log | hematology changes (red cell mass decrease, neutrophil decrease, platelet increase) (Sprague Dawley rats; males given vancomycin alone 110 mg/kg/day, end of treatment): also noted in males given vancomycin alone | body weight, body weight gains, food consumption changes (Sprague Dawley rats; rat, IV QD 14 days, alone or in combination with vancomycin): no body weight, body weight gains, or food consumption changes

Structure (SMILES): COC1C=COC2(C)Oc3c(C)c(O)c4c(=O)c(c5oc6cc(OCCN)ccc6nc-5c4c3C2=O)NC(=O)C(C)=CC=CC(C)C(O)C(C)C(O)C(C)C(OC(C)=O)C1C (centres unmarked) [Compound 2]
Intracellular MIC (S. aureus NRS384 [1]): 1 µM | Broth MIC (S. aureus NRS384 [2]): 0.412 µM

% Recovery (vs. T0 stability) [3]: 81.9% | CLint scaled (in vitro [4]; S9 microsomes): < 2.73 L/h/kg | remaining at 2 h (in vitro [4]; S9 microsomes): 125% | CLint scaled (in vitro [5]; S9 microsomes): < 1.4 L/h/kg | remaining at 2 h (in vitro [5]; S9 microsomes): 129% | Papp A→B (in vitro [6]): 5.89 nm/s | Papp B→A (in vitro [6]): 59.3 nm/s | recovery (endogenous transporters): 79.5% | Papp A→B (P-gp (MDR1)): 2.87 nm/s | Papp B→A (P-gp (MDR1)): 62.5 nm/s | recovery (P-gp (MDR1)): 76.5% | Mean B-A % Recovery [7]: 80.80% | % Protein Bound [8]: 79.1 ± 0.6% | % Protein Free [8]: 20.9 ± 0.6% | % Matrix Stability (6 h) [8]: 74.3% | Mean B-A % Recovery [9]: 74.40% | Average % Stability [10]: 85.2%
Structure (SMILES): CO[C@H]1/C=C/O[C@@]2(C)Oc3c(C)c(O)c4c(O)c(c(/C=N/N5CCN(C)CC5)c(O)c4c3C2=O)NC(=O)/C(C)=C\C=C\[C@H](C)[C@H](O)[C@@H](C)[C@@H](O)[C@@H](C)[C@H](OC(C)=O)[C@@H]1C [Compound 1, rifampicin]
Intracellular MIC (S. aureus NRS384 [1]): 1 µM | Intracellular MIC [13]: No activity | Intracellular MIC [14]: No activity | S. aureus kidney burden [11, 17]: to or near the limit of detection | S. aureus kidney burden, efficacy [12, 17]: effective; also recorded: reduced kidney burden | S. aureus kidney burden, efficacy ([12]; 25 mg/kg monotherapy): ineffective | S. aureus kidney burden, efficacy ([12]; doses lower than 0.25 mg/kg in combination with vancomycin): efficacy was reduced to vancomycin alone levels | Broth MIC (S. aureus NRS384 [2]): 0.0156 µM | Broth MIC [15]: 16 µM | Broth MIC [16]: 16 µM
